These results are taken from patent US9199999B2, “Substituted imidazopyrazines” (Bayer Intellectual Property GmbH, priority 2010, dated 2015).

Molecules are shown by their SMILES. pIC50: −log10 of the molar value.

The term pIC50 denotes the negative decadic logarithm of the IC50, by convention in mol/L.

Chain of human kinase Mps-1 (P33981 whole entry): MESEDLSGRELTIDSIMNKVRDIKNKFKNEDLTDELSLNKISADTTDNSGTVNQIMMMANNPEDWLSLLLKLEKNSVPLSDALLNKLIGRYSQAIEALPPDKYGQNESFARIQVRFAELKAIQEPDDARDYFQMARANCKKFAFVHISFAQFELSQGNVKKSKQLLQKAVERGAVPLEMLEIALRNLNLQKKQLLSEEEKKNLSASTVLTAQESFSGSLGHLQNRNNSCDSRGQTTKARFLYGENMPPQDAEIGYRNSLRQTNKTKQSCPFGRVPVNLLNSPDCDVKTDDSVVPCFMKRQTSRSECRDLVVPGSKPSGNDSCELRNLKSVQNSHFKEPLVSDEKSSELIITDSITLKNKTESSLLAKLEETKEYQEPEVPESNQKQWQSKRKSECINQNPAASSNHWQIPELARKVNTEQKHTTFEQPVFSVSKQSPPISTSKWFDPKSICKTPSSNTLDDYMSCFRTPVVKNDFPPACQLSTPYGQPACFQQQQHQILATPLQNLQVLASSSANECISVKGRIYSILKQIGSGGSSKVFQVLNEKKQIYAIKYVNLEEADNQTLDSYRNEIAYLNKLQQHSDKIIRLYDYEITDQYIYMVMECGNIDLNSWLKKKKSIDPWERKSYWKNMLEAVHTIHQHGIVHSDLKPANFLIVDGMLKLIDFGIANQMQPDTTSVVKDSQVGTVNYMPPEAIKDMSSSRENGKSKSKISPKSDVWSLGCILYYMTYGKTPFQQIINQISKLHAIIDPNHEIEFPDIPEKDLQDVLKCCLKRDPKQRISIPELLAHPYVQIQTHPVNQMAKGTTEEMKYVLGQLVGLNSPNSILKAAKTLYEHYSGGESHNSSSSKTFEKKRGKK

This experiment has as its target human kinase Mps-1 (Homo sapiens (Human), UniProt P33981). To be noted: read-out: Mps-1 IC50; N-terminally GST-tagged human full length recombinant Mps-1; 10 μM ATP; 1 μM biotinylated peptide substrate; 60 min at 22° C.
With `O=C(NC1CC1)c1ccc(-c2cnc3c(NCCCO)nc(C#CCO)cn23)cc1` [Example 1, N-cyclopropyl-4-{8-[(3-hydroxypropyl)amino]-6-(3-hydroxyprop-1-yn-1-yl)imidazo[1,2-a]pyrazin-3-yl}benzamide], the negative-log IC50 (pIC50) is 7.51.
Take `CC(C)CNc1nc(C#Cc2ccccc2)cn2c(-c3ccc(S(=O)(=O)NC4CC4)cc3)cnc12` [Example 2, N-cyclopropyl-4-[8-(isobutylamino)-6-(phenylethynyl)imidazo[1,2-a]pyrazin-3-yl]benzenesulfonamide]: the negative-log IC50 (pIC50) is 4.70.
Consider `CC(C)CNc1nc(C#Cc2ccccc2F)cn2c(-c3ccc(S(=O)(=O)NC4CC4)cc3)cnc12` [Example 3, N-cyclopropyl-4-{6-[(2-fluorophenyl)ethynyl]-8-(isobutylamino)imidazo[1,2-a]pyrazin-3-yl}benzenesulfonamide], for which the pIC50 was 4.70.
`CC(C)CNc1nc(C#CCO)cn2c(-c3ccc(S(=O)(=O)NC4CC4)cc3)cnc12` [Example 4, N-cyclopropyl-4-[6-(3-hydroxyprop-1-yn-1-yl)-8-(isobutylamino)imidazo[1,2-a]pyrazin-3-yl]benzenesulfonamide]: the negative logarithm of the IC50 (pIC50) was 5.74.
Then `CC(C)(O)C#Cc1cn2c(-c3ccc(C(=O)NC4CC4)cc3)cnc2c(NCCCCO)n1` [Example 8, N-cyclopropyl-4-{8-[(4-hydroxybutyl)amino]-6-(3-hydroxy-3-methylbut-1-yn-1-yl)imidazo[1,2-a]pyrazin-3-yl}benzamide], with 7.66.
Regarding `O=C(NC1CC1)c1ccc(-c2cnc3c(NCCCCO)nc(C#CC4(O)CCCC4)cn23)cc1` [Example 9, N-cyclopropyl-4-{8-[(4-hydroxybutyl)amino]-6-[(1-hydroxycyclopentyl)ethynyl]imidazo[1,2-a]pyrazin-3-yl}benzamide], the pIC50 is 8.00.
Consider `CC(C)(O)CNc1nc(C#CCO)cn2c(-c3ccc(C(=O)NC4CC4)cc3)cnc12` [Example 10, N-cyclopropyl-4-{8-[(2-hydroxy-2-methylpropyl)amino]-6-(3-hydroxyprop-1-yn-1-yl)imidazo[1,2-a]pyrazin-3-yl}benzamide], for which the pIC50 was 7.42.
As to `COc1cc(C(=O)NC2CC2)ccc1-c1cnc2c(NCCCN)nc(C#CCO)cn12` [Example 11, 4-{8-[(3-Aminopropyl)amino]-6-(3-hydroxyprop-1-yn-1-yl)imidazo[1,2-a]pyrazin-3-yl}-N-cyclopropyl-3-methoxybenzamide], the pIC50 was 6.00.
As to `Cc1cc(-c2cnc3c(NCC(C)C)nc(C#CCO)cn23)ccc1C(=O)NC1CC1` [Example 49, N-cyclopropyl-4-{6-(3-hydroxyprop-1-yn-1-yl)-8-[(2-methylpropyl)amino]imidazo[1,2-a]pyrazin-3-yl}-2-methylbenzamide], the pIC50 is 7.85.
With `OCC#Cc1cn2c(-c3ccc(-c4cnc(C5CC5)[nH]4)cc3)cnc2c(NC[C@H](O)CO)n1` [Example 50, (2S)-3-({3-[4-(2-cyclopropyl-1H-imidazol-5-yl)phenyl]-6-(3-hydroxyprop-1-yn-1-yl)imidazo[1,2-a]pyrazin-8-yl}amino)propane-1,2-diol], the negative logarithm of the IC50 (pIC50) was 6.89.
With `OCC#Cc1cn2c(-c3ccc(-c4cnc(C5CC5)[nH]4)cc3)cnc2c(NCCCC(F)(F)F)n1` [Example 51, 3-{3-[4-(2-Cyclopropyl-1H-imidazol-5-yl)phenyl]-8-[(4,4,4-trifluorobutyl)amino]imidazo[1,2-a]pyrazin-6-yl}prop-2-yn-1-ol], the pIC50 is 7.82.
On to `C=C(C)CNc1nc(C#CCO)cn2c(-c3ccc(-c4cnc(C5CC5)[nH]4)cc3)cnc12` [Example 52, 3-{3-[4-(2-Cyclopropyl-1H-imidazol-5-yl)phenyl]-8-[(2-methylprop-2-en-1-yl)amino]imidazo[1,2-a]pyrazin-6-yl}prop-2-yn-1-ol], for which the negative-log IC50 (pIC50) is 7.89.
Consider `C=CCNc1nc(C#CCO)cn2c(-c3ccc(-c4cnc(C5CC5)[nH]4)cc3)cnc12` [Example 53, 3-{8-(Allylamino)-3-[4-(2-cyclopropyl-1H-imidazol-5-yl)phenyl]imidazo[1,2-a]pyrazin-6-yl}prop-2-yn-1-ol], for which the pIC50 is 7.74.
Under `CC(C)CNc1nc(C#CCO)cn2c(-c3ccc(-c4cnc(C5CC5)[nH]4)cc3)cnc12` [Example 54, 3-{3-[4-(2-Cyclopropyl-1H-imidazol-5-yl)phenyl]-8-(isobutylamino)imidazo[1,2-a]pyrazin-6-yl}prop-2-yn-1-ol] stands 8.08.
As to `CC(C)CNc1nc(C#CCO)cn2c(-c3cccc(-c4cnc(C5CC5)[nH]4)c3)cnc12` [Example 55, 3-{3-[3-(2-Cyclopropyl-1H-imidazol-5-yl)phenyl]-8-(isobutylamino)imidazo[1,2-a]pyrazin-6-yl}prop-2-yn-1-ol], the negative-log IC50 (pIC50) is 6.28.
Consider `OCC#Cc1cn2c(-c3ccc(-c4cnc(C5CC5)[nH]4)cc3)cnc2c(NCCCCO)n1` [Example 56, 4-({3-[4-(2-Cyclopropyl-1H-imidazol-5-yl)phenyl]-6-(3-hydroxyprop-1-yn-1-yl)imidazo[1,2-a]pyrazin-8-yl}amino)butan-1-ol], for which the negative-log IC50 (pIC50) was 7.64.
On to `OCC#Cc1cn2c(-c3ccc(-c4cnc(C5CC5)[nH]4)cc3)cnc2c(NCCC(F)(F)F)n1` [Example 57, 3-{3-[4-(2-Cyclopropyl-1H-imidazol-5-yl)phenyl]-8-[(3,3,3-trifluoropropyl)amino]imidazo[1,2-a]pyrazin-6-yl}prop-2-yn-1-ol], for which the pIC50 was 8.15.
Take `OCC#Cc1cn2c(-c3ccc(-c4cnc(C5CC5)[nH]4)cc3)cnc2c(NCC2CCC2)n1` [Example 58, 3-{8-[(Cyclobutylmethyl)amino]-3-[4-(2-cyclopropyl-1H-imidazol-5-yl)phenyl]imidazo[1,2-a]pyrazin-6-yl}prop-2-yn-1-ol]: the pIC50 is 8.28.
Then `OCC#Cc1cn2c(-c3ccc(-c4cnc(C5CC5)[nH]4)cc3)cnc2c(NCCCO)n1` [Example 59, 3-{3-[4-(2-Cyclopropyl-1H-imidazol-5-yl)phenyl]-8-[(3-hydroxypropyl)amino]imidazo[1,2-a]pyrazin-6-yl}prop-2-yn-1-ol], with 7.28; and `O=S1(=O)CCN(CC#Cc2cn3c(-c4ccc(-c5cnc(C6CC6)[nH]5)cc4)cnc3c(NCCC(F)(F)F)n2)CC1` [Example 61, 3-[4-(2-cyclopropyl-1H-imidazol-5-yl)phenyl]-6-[3-(1,1-dioxidothiomorpholin-4-yl)prop-1-yn-1-yl]-N-(3,3,3-trifluoropropyl)imidazo[1,2-a]pyrazin-8-amine], with 8.17; and `Cc1cc(-c2cnc3c(NCCC(F)(F)F)nc(C#CCN4CCS(=O)(=O)CC4)cn23)ccc1C(=O)NC1CC1` [Example 62, N-cyclopropyl-4-{6-[3-(1,1-dioxidothiomorpholin-4-yl)prop-1-yn-1-yl]-8-[(3,3,3-trifluoropropyl)amino]imidazo[1,2-a]pyrazin-3-yl}-2-methylbenzamide], with 8.38.
Regarding `C#Cc1cn2c(-c3ccc(C(=O)NC)c(C)c3)cnc2c(NCCC(F)(F)F)n1` [Example 63, 4-{6-Ethynyl-8-[(3,3,3-trifluoropropyl)amino]imidazo[1,2-a]pyrazin-3-yl}-N,2-dimethylbenzamide], the negative-log IC50 (pIC50) was 6.87.
Then `C#Cc1cn2c(-c3ccc(C(=O)NCC)c(C)c3)cnc2c(NCCC(F)(F)F)n1` [Example 64, N-ethyl-4-{6-ethynyl-8-[(3,3,3-trifluoropropyl)amino]imidazo[1,2-a]pyrazin-3-yl}-2-methylbenzamide], with 6.92; and `C#Cc1cn2c(-c3ccc(C(=O)NCC(F)F)c(C)c3)cnc2c(NCCC(F)(F)F)n1` [Example 65, N-(2,2-difluoroethyl)-4-{6-ethynyl-8-[(3,3,3-trifluoropropyl)amino]imidazo[1,2-a]pyrazin-3-yl}-2-methylbenzamide], with 6.67.
As for `C#Cc1cn2c(-c3ccc(C(=O)NC4(C)CC4)c(C)c3)cnc2c(NCCC(F)(F)F)n1` [Example 66, 4-{6-ethynyl-8-[(3,3,3-trifluoropropyl)amino]imidazo[1,2-a]pyrazin-3-yl}-2-methyl-N-(1-methylcyclopropyl)benzamide], the pIC50 was 6.81.
For the molecule `C#Cc1cn2c(-c3ccc(C(=O)NC4(C#N)CC4)c(C)c3)cnc2c(NCCC(F)(F)F)n1` [Example 67, N-(1-cyanocyclopropyl)-4-{6-ethynyl-8-[(3,3,3-trifluoropropyl)amino]imidazo[1,2-a]pyrazin-3-yl}-2-methylbenzamide], the negative logarithm of the IC50 (pIC50) is 6.78.
Then `C#Cc1cn2c(-c3ccc(C(=O)NC4(OC)CC4)c(C)c3)cnc2c(NCCC(F)(F)F)n1` [Example 68, 4-{6-ethynyl-8-[(3,3,3-trifluoropropyl)amino]imidazo[1,2-a]pyrazin-3-yl}-N-(1-methoxycyclopropyl)-2-methylbenzamide], with 6.52; and `CNC(=O)c1ccc(-c2cnc3c(NCCC(F)(F)F)nc(C#CCO)cn23)cc1C` [Example 70, 4-{6-(3-Hydroxyprop-1-yn-1-yl)-8-[(3,3,3-trifluoropropyl)amino]imidazo[1,2-a]pyrazin-3-yl}-N,2-dimethylbenzamide], with 7.16.
Then `CCNC(=O)c1ccc(-c2cnc3c(NCCC(F)(F)F)nc(C#CCO)cn23)cc1C` [Example 71, N-ethyl-4-{6-(3-hydroxyprop-1-yn-1-yl)-8-[(3,3,3-trifluoropropyl)amino]imidazo[1,2-a]pyrazin-3-yl}-2-methylbenzamide], with 6.82.
Under `Cc1cc(-c2cnc3c(NCCC(F)(F)F)nc(C#CCO)cn23)ccc1C(=O)NCC(F)F` [Example 72, N-(2,2-difluoroethyl)-4-{6-(3-hydroxyprop-1-yn-1-yl)-8-[(3,3,3-trifluoropropyl)amino]imidazo[1,2-a]pyrazin-3-yl}-2-methylbenzamide] stands 6.89; under `Cc1cc(-c2cnc3c(NCCC(F)(F)F)nc(C#CCO)cn23)ccc1C(=O)NC1(C)CC1` [Example 73, 4-{6-(3-hydroxyprop-1-yn-1-yl)-8-[(3,3,3-trifluoropropyl)amino]imidazo[1,2-a]pyrazin-3-yl}-2-methyl-N-(1-methylcyclopropyl)benzamide], 6.92.
